Laboratory results from patent US9139585B2 (Merck Sharp & Dohme Corp., priority 2011, dated 2015).
Like-named read-outs stand apart in the source and are kept apart here.

Tests used:
[1] = target: hROMK (hKir1.1) (Homo sapiens (Human), UniProt P48048); assay: Thallium Flux Assay (ROMK channel functional thallium flux, FLIPR-Tetra); type: cell-based
Method: Another ROMK functional assay makes use of the ability of thallium to permeate through open ROMK channels and increase the fluorescence of a dye previously loaded into the cells. Under control conditions, cells loaded with dye and exposed to thallium-containing medium display a time-dependent increase in fluorescence, the rate of which depends on number of functional channels. When cells are incubated in the presence of a channel inhibitor, the increase in fluorescence is attenuated in a concentration-dependent manner, and IC50 values of inhibition by compounds can be accurately determined. This assay has been established with cell lines expressing either human, or rat ROMK channels, and operates in 384-well format.
HEK293 cells stably expressing hROMK (hKir1.1) were grown at 37° C. in a 10% CO2 humidified incubator in complete growth media: Dulbecco's Modified Eagle Medium supplemented with non-essential amino acids, Penicillin/Streptomycin/Glutamine, G418 and FBS. At >80% confluency, the media was aspirated from the flask and the sample was rinsed with 10 ml Calcium/Magnesium-free PBS. […] To dislodge the cell, the side of the flask was gently banged with a hand. The cells were triturated completely and then transferred to 25 ml complete media. The sample was then centrifuged at 1,500 rpm for 6 minutes, followed by resuspension in complete growth media and then cell concentration was determined. […] Under ideal growth conditions and appropriate tissue culture practices, this cell line is stable for 40-45 passages.
FluxOR Kit Components (Invitrogen F10017)
• FluxOR™ Reagent (Component A) • FluxOR™ Assay Buffer (Component B)—10× Concentrate • PowerLoad™ Concentrate (Component C)—100× Concentrate • Probenecid (Component D)—Lyophilized sample is kept at −20° C. Water soluble, 100× after solubilization in 1 ml water. […] Store at 4° C. • Thallium sulfate (Tl2SO4) Concentrate (Component G)—50 mM in water. Store at 4° C. • DMSO (dimethyl sulfoxide, Component H)—1 ml (100%) Reagent Preparation— FluxOR Working Solutions • 1000× FluxOR™ Reagent: Reconstitute a vial of component A in 100 μl DMSO; Mix well; Store 10 μl aliquots at −20° C. • 1× FluxOR™ Assay Buffer: Dilute Component B 10-fold with water; Adjust pH to 7.4 with Hepes/NaOH; Filter and store at 4° C. • Probenecid/Assay Buffer: 100 ml of 1× FluxOR™ Assay Buffer; 1 ml of reconstituted component D; Store at 4° C. • Loading Buffer (per microplate): 10 μl 1000× FluxOR™ Reagent; 100 μl component C; 10 ml Probenecid/Assay Buffer • Compound Buffer (per microplate): 20 ml Probenecid/Assay Buffer; 0.3 mM ouabain (10 mM ouabain in water can be stored in amber bottle/aluminum foil at room temperature);
Test compound • 1× FluxOR™ Chloride-Free Buffer: Prepare 1× working solution in water. Can be stored at room temperature • Stimulant Buffer (prepared at 5× final concentration in 1× FluxOR™ Chloride-Free Buffer): 7.5 mM Thallium sulfate and 0.75 mM Potassium sulfate (to give a final assay concentration of 3 mM Thallium/0.3 mM Potassium). Store at 4° C. when not in use. If kept sterile, this solution is good for months. Assay Protocol—
The ROMK channel functional thallium flux assay is performed in 384 wells, using the FLIPR-Tetra instrument. HEK-hKir1.1 cells are seeded in Poly-D-Lysine microplates and kept in a 37° C.-10% CO2 incubator overnight. On the day of the experiment, the growth media is replaced with the FluxOR™ reagent loading buffer and incubated, protected from light, at ambient temperature (23-25° C.) for 90 min. The loading buffer is replaced with assay buffer±test compound followed by 30 min incubation at ambient temperature, where the Thallium/Potassium stimulant is added to the microplate.
• 1. Seed HEK-hKir1.1 cells (50 μl at 20,000 cells/well) in 384-well PDL coated Microplates • 2. Allow cells to adhere overnight in humidified 37° C./10% CO2 incubator • 3. Completely remove cell growth media from microplate and replace with 25 μl loading buffer • 4.

[2] = target: Kir1.1 (ROMK1) (Homo sapiens (Human), UniProt P48048); assay: Electrophysiology Assay (whole cell voltage clamp, IonWorks Quattro); type: cell-based; conditions: read-out: EP Assay IC50
Source text: Several assays may be used to measure functional inhibition of the ROMK channel by compounds of the instant invention. One assay that can be used is an electrophysiology assay that measures the electrical current that is generated as potassium permeates through the channel.
Block of Kir1.1 (ROMK1) currents was examined by whole cell voltage clamp (Hamill et. al. Pfluegers Archives 391:85-100 (1981)) using the IonWorks® Quattro automated electrophysiology platform (Molecular Devices, Sunnyvale, Calif.). Chinese hamster ovary cells stably expressing Kir1.1 channels were maintained in T-75 flasks in cell culture media in a humidified 10% CO2 incubator at 37° C. Prior to an experiment, Kir1.1 expression was induced by overnight incubation with 1 mM sodium butyrate. On the day of the experiment, cells were dissociated with 2.5 ml of Versene™ (Invitrogen 15040-066) for approximately 6 minutes at 37° C. and suspended in 10 ml of bath solution containing (in mM): 150 NaCl, 10 KCl, 2.7 CaCl2, 0.5 MgCl2, 5 HEPES, pH 7.4. After centrifugation, the cell pellet was resuspended in approximately 4.0 ml of bath solution and placed in the IonWorks® instrument. The intracellular solution consisted of (in mM): 80 K gluconate, 40 KCl, 20 KF, 3.2 MgCl2, 3 EGTA, 5 Hepes, pH 7.4. Electrical access to the cytoplasm was achieved by perforation in 0.13 mg/ml amphotericin B for 4 minutes. Amphotericin B (Sigma A-4888) was prepared as a 40 mg/ml solution in DMSO.
Voltage protocols and current recordings were performed using the IonWorks® HT software/hardware system. Currents were sampled at 1 kHz. No correction for liquid junction potentials was used. The test pulse, consisting of a 100 ms step to 0 mV from a holding potential of −70 mV, followed by a 100 ms voltage ramp from −70 mV to +70 mV, was applied before and after a 6 minutes compound incubation period. Test compounds were prepared by diluting DMSO stock solutions into the bath solution at 3× the final concentration and placed in the instrument in 96-well polypropylene plates. Current amplitudes were measured using the IonWorks® software. To assess compound potency, the fractional block during the voltage step to 0 mV was calculated in Microsoft® Excel (Microsoft, Redmond, Calif.), and dose-response curves were fitted with Igor Pro 4.0 (WaveMetrics, Lake Oswego, Oreg.).

[3] = HEK293 cells stably expressing hROMK (hKir1.1), read-out: Thallium Flux Assay IC50
[4] = Chinese hamster ovary cells stably expressing Kir1.1, block during voltage step to 0 mV

hROMK (hKir1.1), sequence (P48048 whole entry): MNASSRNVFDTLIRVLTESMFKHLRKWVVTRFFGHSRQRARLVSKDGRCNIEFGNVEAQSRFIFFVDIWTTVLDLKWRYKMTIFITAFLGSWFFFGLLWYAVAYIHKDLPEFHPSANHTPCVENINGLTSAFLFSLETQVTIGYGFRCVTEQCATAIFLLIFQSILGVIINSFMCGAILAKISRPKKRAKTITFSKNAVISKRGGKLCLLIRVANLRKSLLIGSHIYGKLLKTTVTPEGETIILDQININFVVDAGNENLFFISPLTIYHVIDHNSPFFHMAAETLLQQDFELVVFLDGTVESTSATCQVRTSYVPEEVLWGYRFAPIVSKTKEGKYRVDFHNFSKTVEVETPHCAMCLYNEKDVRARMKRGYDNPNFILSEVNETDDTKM
Kir1.1 (ROMK1), sequence (P48048 whole entry, species assumed): as the sequence (P48048 whole entry) above

Row | Compound | IC50 [1, 3] [µM] | IC50 [2, 4] [µM] | IC50 [2] [µM] | IC50 ([1]; Thallium Flux Assay IC50) [µM]
1 | COc1cc(C(O)CN2CCN(CC(O)c3ccc4c(c3)C[C@H](C)OC4=O)CC2)ncc1C#N (single isomer, unassigned) [Example 44A] | 0.704 | 0.151 |  | 
2 | COc1cc(C(O)CN2CCN(CC(O)c3ccc4c(c3)C[C@H](C)OC4=O)CC2)ncc1C#N (single isomer, unassigned) [Example 44B] | 0.243 | 0.018 |  | 
3 | COc1cc(C(O)CN2C3COCC2CN(C[C@H](O)c2ccc4c(c2C)COC4=O)C3)ncc1C#N (stereo in doubt) [Example 25, (R)-6-(1-Hydroxy-2-(7-(2-hydroxy-2-(4-methyl-1-oxo-1,3-dihydroisobenzofuran-5-yl)ethyl)-3-oxa-7,9 diazabicyclo[3.3.1]nonan-9-yl)ethyl)-4-methoxynicotinonitrile] | 0.0205 |  | 0.11 | 
4 | COc1cc(C(O)CN2C3COCC2CN(C[C@H](O)c2ccc4c(c2C)COC4=O)C3)ncc1C#N (stereo in doubt) [Example 26, (R)-6-(1-Hydroxy-2-(7-(2-hydroxy-2-(4-methyl-1-oxo-1,3-dihydroisobenzofuran-5-yl)ethyl)-3-oxa-7,9 diazabicyclo[3.3.1]nonan-9-yl)ethyl)-4-methoxynicotinonitrile] | 0.0492 |  | 0.071 | 
5 | Cc1c([C@@H](O)CN2CCN(C[C@H](O)c3ccc4c(c3C)COC4=O)C3(CCCC3)C2)ccc2c1COC2=O [Example 1, 5,5′-{6,9-Diazaspiro[4.5]decane-6,9-diylbis[(1R)-1-hydroxyethane-2,1-diyl]}bis(4-methyl-2-benzofuran-1(3H)-one)] | 0.311 | 0.134 |  | 
6 | Cc1c([C@@H](O)CN2CCN(C[C@H](O)c3ccc4c(c3C)COC4=O)C(C)(C)C2)ccc2c1COC2=O [Example 2, 5,5′-{(2,2-dimethylpiperazine-1,4-diyl)bis[(1R)-1-hydroxyethane-2,1-diyl]}bis(4-methyl-2-benzofuran-1(3H)-one)] | 0.113 | 0.041 |  | 
7 | Cc1c([C@@H](O)CN2C[C@@H]3C[C@H]2CN3S(=O)(=O)c2ccc(C#N)cc2)ccc2c1COC2=O [Example 3, 4-((1S,4S)-5-((R)-2-Hydroxy-2-(4-methyl-1-oxo-1,3-dihydroisobenzofuran-5-yl)ethyl)-2,5-diazabicyclo[2.2.1]heptan-2-ylsulfonyl)benzonitrile] | 0.636 | 0.2 |  | 
8 | Cc1nc(C(O)CN2C3CCC2C2CCC3N2C[C@H](O)c2ccc3c(c2C)COC3=O)ccc1C#N (stereo partly drawn) [Example 7, 6-(1-Hydroxy-2-{10-[(2R)-2-hydroxy-2-(4-methyl-1-oxo-1,3-dihydro-2-benzofuran-5-yl)ethyl]-9,10-diazatricyclo[4.2.1.1^2,5]dec-9-yl}ethyl)-2-methylpyridine-3-carbonitrile] | 0.115 | 0.045 |  | 
9 | Cc1c([C@@H](O)CN2[C@@H]3CC[C@H]2CN(c2ccc(C#N)cn2)C3)ccc2c1COC2=O [Example 10, 6-((1R,5S)-8-((R)-2-Hydroxy-2-(4-methyl-1-oxo-1,3-dihydroisobenzofuran-5-yl)ethyl)-3,8-diazabicyclo[3.2.1]octan-3-yl)nicotinonitrile] | 0.64 | 0.316 |  | 
10 | Cc1c([C@@H](O)CN2CCN(c3ccc(C#N)cn3)CC2)ccc2c1COC2=O [Example 11, (R)-6-(4-(2-Hydroxy-2-(4-methyl-1-oxo-1,3-dihydroisobenzofuran-5-yl)ethyl)piperazin-1-yl)nicotinonitrile] | 0.743 | 0.054 |  | 
11 | Cc1c([C@@H](O)CN2[C@@H]3CC[C@H]2CN(C(=O)c2ccc(-n4cnnn4)nc2)C3)ccc2c1COC2=O [Example 12, 5-((R)-2-((1R,5S)-3-(6-(1H-Tetrazol-1-yl)nicotinoyl)-3,8-diazabicyclo[3.2.1]octan-8-yl)-1-hydroxyethyl)-4-methylisobenzofuran-1 (3H)-one] | 0.342 | 0.14 |  | 
12 | Cc1c([C@@H](O)CN2C3CCC2C2CCC3N2C(=O)c2ccc(-n3cnnn3)nc2)ccc2c1COC2=O [Example 13] |  |  | 0.13 | 0.985
13 | Cc1c([C@@H](O)CN2C[C@H]3CC[C@@H](C2)N3S(=O)(=O)c2ccc(-n3cnnn3)cc2)ccc2c1COC2=O [Example 16] |  |  | 0.054 | 0.397
14 | Cc1c([C@@H](O)CN2CC3COCC(C2)N3C[C@H](O)c2ccc3c(c2C)COC3=O)ccc2c1COC2=O [Example 18, 5,5′-(1R,1′R)-2,2′-(3-Oxa-7,9-diazabicyclo[3.3.1]nonane-7,9-diyl)bis(1-hydroxyethane-2,1-diyl)bis(4-methylisobenzofuran-1(3H)-one)] | 0.0308 | 0.03 |  | 
15 | Cc1c([C@@H](O)CN2CC3COCC(C2)N3CC(O)c2ccc(C#N)cn2)ccc2c1COC2=O (stereo partly drawn) [Example 20, 6-(1-Hydroxy-2-(7-((R)-2-hydroxy-2-(4-methyl-1-oxo-1,3-dihydroisobenzofuran-5-yl)ethyl)-3-oxa-7,9 diazabicyclo[3.3.1]nonan-9-yl)ethyl)nicotinonitrile] | 0.078 | 0.0295 |  | 
16 | Cc1c([C@@H](O)CN2C3COCC2CN(CCc2ccc4c(c2)C[C@@H](C)OC4=O)C3)ccc2c1COC2=O [Example 21, (R)-6-(2-(9-((R)-2-Hydroxy-2-(4-methyl-1-oxo-1,3-dihydroisobenzofuran-5-yl)ethyl)-3-oxa-7,9-diazabicyclo[3.3.1]nonan-7-yl)ethyl)-3-methylisochroman-1-one] |  |  | 0.045 | 0.036
